# Experimental data taken from paper PMC9612005 (Pharmaceutics, 2022).
# Where two headings read alike, the source gives them in different places.
# Biological target: T1, cone CNG channels (CNGA3:CNGB3) (Homo sapiens, UniProt Q16281+Q9NQW8)
# T1 construct: expressed in transfected cells; host or cells: Xenopus laevis oocytes (cRNA injection, pGEMHE vector); inside-out patches
# T1 sequence (Q16281 1-694): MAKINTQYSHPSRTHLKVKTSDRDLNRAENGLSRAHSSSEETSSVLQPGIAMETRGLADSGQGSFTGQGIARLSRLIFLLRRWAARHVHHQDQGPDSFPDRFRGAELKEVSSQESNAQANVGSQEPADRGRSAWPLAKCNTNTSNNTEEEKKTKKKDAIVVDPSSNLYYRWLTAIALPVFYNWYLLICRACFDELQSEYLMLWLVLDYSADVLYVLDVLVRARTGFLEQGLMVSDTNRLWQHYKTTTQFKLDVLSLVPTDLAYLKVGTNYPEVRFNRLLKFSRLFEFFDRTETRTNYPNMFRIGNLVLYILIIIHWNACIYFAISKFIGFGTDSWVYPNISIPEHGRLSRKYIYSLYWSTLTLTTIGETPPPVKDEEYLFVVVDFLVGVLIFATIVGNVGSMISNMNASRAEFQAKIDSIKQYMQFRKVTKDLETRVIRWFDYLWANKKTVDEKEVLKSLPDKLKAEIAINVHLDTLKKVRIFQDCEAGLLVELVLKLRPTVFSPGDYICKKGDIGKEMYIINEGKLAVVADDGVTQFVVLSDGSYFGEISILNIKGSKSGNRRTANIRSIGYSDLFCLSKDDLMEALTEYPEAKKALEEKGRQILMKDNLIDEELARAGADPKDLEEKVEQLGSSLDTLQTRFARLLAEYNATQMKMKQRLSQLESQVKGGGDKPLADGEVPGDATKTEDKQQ
# T1 sequence (Q9NQW8 1-809): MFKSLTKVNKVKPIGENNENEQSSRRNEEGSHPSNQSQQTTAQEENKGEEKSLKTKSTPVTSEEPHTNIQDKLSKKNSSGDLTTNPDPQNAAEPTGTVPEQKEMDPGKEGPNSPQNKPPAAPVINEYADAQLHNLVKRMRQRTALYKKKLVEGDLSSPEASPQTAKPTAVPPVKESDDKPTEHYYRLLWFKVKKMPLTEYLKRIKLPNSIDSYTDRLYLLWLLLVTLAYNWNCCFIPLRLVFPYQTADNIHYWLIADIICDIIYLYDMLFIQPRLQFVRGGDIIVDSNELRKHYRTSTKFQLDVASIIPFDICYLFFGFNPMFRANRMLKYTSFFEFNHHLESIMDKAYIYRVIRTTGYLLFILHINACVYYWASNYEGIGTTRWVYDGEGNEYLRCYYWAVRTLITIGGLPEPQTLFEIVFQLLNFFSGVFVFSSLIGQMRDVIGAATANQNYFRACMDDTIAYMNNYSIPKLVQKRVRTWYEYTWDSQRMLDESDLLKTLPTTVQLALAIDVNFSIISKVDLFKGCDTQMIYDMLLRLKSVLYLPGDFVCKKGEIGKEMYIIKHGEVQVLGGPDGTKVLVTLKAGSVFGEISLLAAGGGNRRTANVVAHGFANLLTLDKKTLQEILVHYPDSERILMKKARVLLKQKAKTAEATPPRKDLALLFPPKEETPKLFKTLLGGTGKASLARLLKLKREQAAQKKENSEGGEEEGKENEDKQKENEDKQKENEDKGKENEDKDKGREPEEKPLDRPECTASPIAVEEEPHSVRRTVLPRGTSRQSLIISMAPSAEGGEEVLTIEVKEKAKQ
# Experiment: Patch-clamp on inside-out patches, heterotetrameric cone CNG channels expressed in Xenopus laevis oocytes
# Assay type: cell-based
# Source text: The patch pipettes were pulled from borosilicate glass tubing (outer diameter 2.0 mm, inner diameter 1.0 mm; Hilgenberg GmbH, Malsfeld, Germany). The initial resistance of the solution-filled pipettes was 0.6–1.4 MΩ. […] For studying the activation and deactivation kinetics of CNG channels, we performed fast jumps between different ligand concentrations by means of a double-barreled θ-glass pipette mounted on a piezo-driven device, which was controlled by the computer. For measuring the time courses, the recording rate was 20 kHz.
# The activation and deactivation time courses were determined by fitting the respective current traces with single exponentials:(3) I(t)=A∗exp[−t/τ] where A is the amplitude, t the time, and τ the time constant for either activation or deactivation.
Structure (SMILES),cone CNG-channel activation (0.1 µM),"potency compared to cGMP, cone channel (higher potency than cGMP)","H (Hill coefficient), cone CNG channels (ligand alone)","EC50 (ligand alone, concentration-activation relationship, Hill fit, read-out: EC50, cone CNG channels)",EC50,decrease in the apparent affinity of cone CNG channels (50 µM analogue),"H (Hill coefficient), cone CNG channels (cGMP + 50 µM of the cGMP analogue)"
Nc1nc2c(nc(Sc3ccc(Cl)cc3)n2[C@@H]2O[C@@H]3COP(=O)(O)O[C@H]3[C@H]2O)c(=O)[nH]1 [8-pCPT-cGMP],~ 90%,~ 138 times,1.74,0.08 µM,–,–,–
O=c1c2nc(Br)n([C@@H]3O[C@@H]4CO[P@@](=O)(S)O[C@H]4[C@H]3O)c2nc2[nH]c(-c3ccccc3)cn12 [Rp-8-Br-PET-cGMPS],–,–,–,–,4.4 µM,~ 3.2 fold,1.97
